Type in all cases: binding
The target of assay [1] is T1, HIV-1 SC V3 hypervariable loop peptide (Human immunodeficiency virus type 1 (SC ISOLATE), UniProt P05878).
T1 construct: cut from Env gp160
The experiment in a line: Reactivity/attachment of ATA with V3 hypervariable loop peptides of distinct HIV-1 isolates (FIG. 4). As for the experimental part: (§1) FIG. 4 comprises bar graphs depicting the interaction of aurintricarboxylic acid (ATA) with full length V3 hypervariable loop peptides from gp120 of distinct HIV-1 isolates (clones). FIG. 4A: Inhibitory effects of ATA (50 μg/ml) on the reaction between peptide-coated wells and homologous anti-peptide antisera (diluted 1:1,000). FIG. 4B: attachment of ATA to distinct V3 hypervariable loop peptide-coated wells as determined by double antibody RIA using rabbit antiserum against ATA.
(§2) To define sites on gp120/gp41 reacting with ATA, the inhibitory effect of this compound was studied by RIA tests using gp120- and gp160-coated wells, respectively, and antisera (final dilutions 1:150) against synthetic peptides from the entire sequence of gp120/gp41 of HIV-1 BH 10. The preparation and biological properties of these antisera were described elsewhere (Neurath et al., (1990), J. Gen. Virol., 71, 85-95). Each of the antisera was diluted in a mixture of fetal bovine serum and goat serum (9:1) containing 0.1% Tween 20, adjusted to pH 8. ATA (final concentration 50 μg/ml) was added in one set of assays, but was omitted from a parallel set. After incubation overnight at 25° C., the plates were washed with TS. Attached rabbit IgG was detected using ^125 I-labeled anti-rabbit IgG, as described before (Neurath et al., 1990, J. Gen. Virol., 71, 85-95). Similarly, the inhibitory effect of ATA on the reaction of peptides derived from gp120/gp41 and of peptides derived from V3 hypervariable loops from gp120 of distinct HIV-1 isolates with the respective homologous anti-peptide antisera was studied. In the latter case, antisera were diluted 1:1,000 for the assays.
(§3) ATA was also added to a control peptide, (518-542), and to wells coated with gelatin only. After incubation for 4 hours at 20° C., excess ATA was removed, the wells were washed with TS and attached ATA was determined by double-antibody RIA using serial dilutions of the anti-ATA antiserum. […]

The target of assay [2] is T2, HIV-1 JY-1 V3 hypervariable loop peptide (Human immunodeficiency virus type 1 lw12.3 isolate, UniProt Q70626).
T2 construct: cut from Env gp160
T2 sequence (Q70626 296-331): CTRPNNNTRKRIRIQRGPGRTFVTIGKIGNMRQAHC
The description is as above. As for the experimental part: as §1, §2, §3

The target of assay [3] is T3, HIV-1 IIIB glycoprotein gp120 V3 hypervariable loop (Human immunodeficiency virus type 1 BH10, UniProt P03375).
T3 construct: b180 also mentions the V3 loop peptide
The experiment in a line: Inhibition of the reaction between HIV-1 IIIB gp120 and three distinct antibodies reacting with the V3 hypervariable loop (FIGS. 8-11). The settings on record: 60 μg/ml, metal complexes versus uncomplexed. The procedure: (§4) FIG. 8 is a bar graph depicting the inhibitory effect of chlorine6 (60 μg/ml) and metal chelates thereof on the reaction between HIV-1 IIIB glycoprotein gp120 and three distinct antibodies reacting with the V3 hypervariable loop of this glycoprotein. The antisera used were rabbit antiserum to a synthetic peptide corresponding to the V3 hypervariable loop of HIV-1 clone BH10, serum of a chimpanzee immunized with V3 hypervariable loop peptides of distinct HIV-1 isolates and monoclonal antibodies (McAb NEA 9305) raised against residues (315-329) of the V3 hypervariable loop of HIV-1 BH10 (Neurath et al (1990), Molec. Immunol., 27, 539-549).
FIG. 9 is a bar graph depicting the inhibitory effect of deuteroporphyrin IX,2-vinyl,4-hydroxymethyl (60 μg/ml) and metal chelates thereof on the reaction between HIV-1 IIIB glycoprotein gp120 and three distinct antibodies reacting with the V3 hypervarible loop of this glycoprotein. The antisera used were rabbit antiserum to a synthetic peptide corresponding to the V3 hypervariable loop of HIV-1 clone BH10, serum of a chimpanzee immunized with V3 hypervariable loop peptides of distinct HIV-1 isolates and monoclonal antibodies (McAb NEA 9305) raised against a synthetic peptide corresponding to residues (315-329) of the V3 hypervariable loop of HIV-1 BH10 (Neurath et al (1990), Molec. Immunol 27, 539-549).
as §4, with “FIG. 10” for “FIG. 8”, “of meso-tetra (4-carboxyphenyl)porphine” for “of chlorine6”, “against a synthetic peptide corresponding to” for “against”, “HIV-1 BH10.” for “HIV-1 BH10”
as §4, with “FIG. 11” for “FIG. 8”, “of uroporphyrin III” for “of chlorine6”, “against a synthetic peptide corresponding to” for “against”, “et al,” for “et al”, “Molec. lmmunol.,” for “Molec. Immunol.,”, “27, 539-549)” for “27, 539-549).”
Monoclonal antibodies (McAbs) recognizing the V3 hypervariable loop of HIV-1 BH 10 (McAb 9305 from DuPont, Wilmington, Del.) and an antiserum from a chimpanzee immunized with a mixture of V3 hypervariable loop peptides from 21 distinct HIV1 isolates (Girard, M., Kieny, M-P., Pinter, A., Barre-Sinoussi, F., Nara, P., Kolbe, H., Kusumi, K., Chaput, A., Reinhart, T., Muchmore, E, Ronco, J., Kaczorek, M., Gomard, E, Gluckman, JC., Fultz, P. N. (1991), "Immunization of Chimpanzees Confers Protection Against Challenge with Human Immunodeficiency Virus", Proc. Natl. Acad. Sci. USA, 88, 542-546) were also used for studies on the inhibitory affect of ATA on the reaction between these antibodies and gp120, using ELISA tests. These tests were carried out similarly as RIA, except that sodium merthiolate (1 mg/ml) was added to the buffers instead of NaN3, and goat antimouse IgG antibodies (Boehringer Mannheim Biochemicals, Indianapolis, Ind.) and goat anti-human IgG antibodies (Sigma, St. Louis, Mo.), respectively, each linked to horseradish peroxidase were used as second antibodies at final dilutions of 1:1,000 in phosphate-buffered saline (PBS) containing 10% goat serum and 0.1% Tween 20. […]

T1 sequence (P05878 296-330): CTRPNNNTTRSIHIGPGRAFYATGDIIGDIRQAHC

As to `O=C(O)C1=CC(=C(c2ccc(O)c(C(=O)O)c2)c2ccc(O)c(C(=O)O)c2)C=CC1=O` [substance #122, aurintricarboxylic acid], the “reactivity of ATA with V3 hypervariable loop peptide” value in assay [1] (FIG. 4) and in assay [2] was “minimal” throughout. Also, the “ATA binding to V3 peptide” value in assay [1] (FIG. 4B) was “bound very little ATA”.
For the compound `C=Cc1c(C)c2cc3nc(c(CC(=O)O)c4[nH]c(cc5nc(cc1[nH]2)C(C)=C5CC)c(C)c4C(=O)O)[C@@H](CCC(=O)O)[C@@H]3C` [substance #149, chlorine e6], the “inhibitory activity on the interaction between the V3 hypervariable loop of HIV-1-IIIB and antisera” value in assay [3] is on record as “considerable inhibitory activity”.

These data come from patent publication US5230998A, “Method for the prescreening of drugs targeted to the V3 hypervariable loop of the HIV-1 envelope glycoprotein gp 120” (priority 1991, dated 1993).
